Drawing on PubChem BioAssay AID192 (DTP/NCI, 2004), this text covers T/C for 23 compounds.

This assay relates to BDF1 mice, B16 melanoma ip, median survival T/C. In words: NCI In Vivo Anticancer Drug Screen. Data for tumor model B16 Melanoma (intraperitoneal) in B6D2F1 (BDF1) mice. Particulars: endpoint: median survival time, higher = longer survival. The method in brief: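 Transplantable tumor model; survival or tumor size measured; reported as T/C, treated over vehicle control.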
Where [1] appears, read: dose: 25.0 mg/kg/injection, schedule: Q01DX009 (ip), vehicle: saline with Tween-80.
Where [2] appears, read: dose: 50.0 mg/kg/injection, schedule: Q01DX009 (ip), vehicle: saline with Tween-80.
[3] abbreviates: dose: 50.0 mg/kg/injection, schedule: Q04DX003 (ip), vehicle: saline with Tween-80.
Setting [4] is: dose: 100.0 mg/kg/injection, schedule: Q01DX009 (ip), vehicle: saline with Tween-80.
Where [5] appears, read: dose: 50.0 mg/kg/injection, schedule: Q01DX009 (ip), vehicle: saline.
The mark [6] stands for this setting: dose: 100.0 mg/kg/injection, schedule: Q01DX009 (ip), vehicle: saline.
Where [7] appears, read: dose: 200.0 mg/kg/injection, schedule: Q01DX009 (ip), vehicle: saline with Tween-80.
The mark [8] stands for this setting: dose: 400.0 mg/kg/injection, schedule: Q01DX009 (ip), vehicle: saline with Tween-80.
Where [9] appears, read: dose: 50.0 mg/kg/injection, schedule: Q01DX009 (ip), vehicle: Klucel (hydroxypropylcellulose) (HPC).
Where [10] appears, read: dose: 25.0 mg/kg/injection, schedule: Q01DX009 (ip), vehicle: Klucel (hydroxypropylcellulose) (HPC).
Setting [11] is: dose: 25.0 mg/kg/injection, schedule: Q01DX009 (ip), vehicle: other.
Where [12] appears, read: dose: 50.0 mg/kg/injection, schedule: Q01DX009 (ip), vehicle: other.
Where [13] appears, read: dose: 100.0 mg/kg/injection, schedule: Q01DX009 (ip), vehicle: Klucel (hydroxypropylcellulose) (HPC).
Where [14] appears, read: dose: 200.0 mg/kg/injection, schedule: Q01DX009 (ip), vehicle: Klucel (hydroxypropylcellulose) (HPC).
[15] abbreviates: dose: 400.0 mg/kg/injection, schedule: Q01DX009 (ip), vehicle: Klucel (hydroxypropylcellulose) (HPC).
The mark [16] stands for this setting: dose: 200.0 mg/kg/injection, schedule: Q01DX009 (ip), vehicle: saline.
[17] abbreviates: dose: 400.0 mg/kg/injection, schedule: Q01DX009 (ip), vehicle: saline.
The mark [18] stands for this setting: dose: 12.5 mg/kg/injection, schedule: Q01DX009 (ip), vehicle: saline.
Setting [19] is: dose: 25.0 mg/kg/injection, schedule: Q01DX009 (ip), vehicle: saline.

Values joined by “and” are separate entries in the source; they are usually repeats but may differ in a detail not shown here. Equal values may be shown once. Toxic doses and inconclusive results are not listed.

On to `CSCCC(C)C`, for which the T/C is 95 % of control under setting [1]; 89 % of control under setting [2]; 110 % of control under setting [3]; 95 % of control under setting [4]; 97 % of control (dose: 100.0 mg/kg/injection, schedule: Q04DX003 (ip), vehicle: saline with Tween-80).
As to `CC1CC(C)(C)N=C(CCC2CCCC23OCCO3)O1` (stereo not given), the T/C runs as follows: under setting [5], 108 % of control; under setting [6], 111 % of control.
On to `NC(CCCCNC(=O)c1ccccc1)C(=O)O` (stereo not given), for which the T/C runs as follows: under setting [2], 100 % of control; under setting [4], 100 % of control; under setting [7], 92 % of control; under setting [8], 95 % of control.
Take `C=C(Cl)c1c(C)cc(C)cc1C`: under setting [9], the T/C was 87 % of control.
Regarding `CN(C)[C@@H]1C(=O)C(C(=O)NCN(CCCl)CCCl)=C(O)[C@@]2(O)C(=O)C3=C(O)c4c(O)cccc4[C@@](C)(O)[C@H]3C[C@@H]12`, the T/C runs as follows: (dose: 3.13 mg/kg/injection, schedule: Q01DX009 (ip), vehicle: Klucel (hydroxypropylcellulose) (HPC)) 98 % of control; (dose: 6.25 mg/kg/injection, schedule: Q01DX009 (ip), vehicle: Klucel (hydroxypropylcellulose) (HPC)) 113 % of control; under setting [10], 97 % of control.
As for `Cc1ccc2ccccc2c1OC(C)C(=O)O` (stereo not given), the T/C (dose: 25.0 mg/kg/injection, schedule: Q04DX003 (ip), vehicle: alcohol) was 100 % of control; the T/C (dose: 50.0 mg/kg/injection, schedule: Q01DX009 (ip), vehicle: alcohol) was 112 % of control; the T/C (dose: 50.0 mg/kg/injection, schedule: Q04DX003 (ip), vehicle: alcohol) is 100 % of control; the T/C (dose: 100.0 mg/kg/injection, schedule: Q01DX009 (ip), vehicle: alcohol) was 109 % of control; the T/C (dose: 100.0 mg/kg/injection, schedule: Q04DX003 (ip), vehicle: alcohol) was 88 % of control.
Turning to `NC(=O)NC1CCCCCCC1`, the T/C was 100 % of control under setting [4], 93 % of control under setting [7] and 104 % of control under setting [8].
For `OCc1ccccc1` the same measures were 94 % of control, 100 % of control and 108 % of control.
In the case of `CC(=O)SCCC(=O)O`, the T/C is 107 % of control (dose: 0.75 mg/kg/injection, schedule: Q01DX009 (ip), vehicle: saline); 112 % of control (dose: 1.5 mg/kg/injection, schedule: Q01DX009 (ip), vehicle: saline); 114 % of control (dose: 3.0 mg/kg/injection, schedule: Q01DX009 (ip), vehicle: saline).
On to `COc1cc2ccc(/C=N/NC(N)=S)cc2cc1OC`, for which the T/C was 117 % of control under setting [11]; 108 % of control under setting [12]; 109 % of control (dose: 100.0 mg/kg/injection, schedule: Q01DX009 (ip), vehicle: other); 96 % of control (dose: 200.0 mg/kg/injection, schedule: Q01DX009 (ip), vehicle: other).
Consider `CC(=O)N(C)N(Cc1ccc(C#N)cc1)C(C)=O`, for which the T/C is 98 % of control under setting [10]; 96 % of control under setting [9]; 99 % of control under setting [13]; 98 % of control under setting [14]; 95 % of control under setting [15].
For `Cn1c(O)c(C=N)c(=O)n(C)c1=O`, the T/C was 111 % of control under setting [11] and 102 % of control under setting [12].
Regarding `Cc1cc(C)c(NC(=O)Nc2ccc(Cl)cc2)c(C)c1`, the T/C is, setting by setting: under setting [13], 93 % of control; under setting [14], 93 % of control.
`O=C(O)CSC(CC(=O)O)C(=O)O` (stereo not given): the T/C under setting [16] is 106 % of control and the T/C under setting [17] is 106 % of control.
Consider `NC(=O)c1ccccc1NC(=O)Nc1ccccc1`, for which the T/C under setting [13] is 89 % of control, the T/C under setting [14] was 91 % of control and the T/C under setting [15] is 89 % of control.
Turning to `CCCCOC(=O)C(C)OC(=O)Nc1cccc(Cl)c1` (stereo not given), the T/C runs as follows: under setting [4], 88 % of control; under setting [7], 100 % of control; under setting [8], 92 % of control.
On to `COC(=O)CC(N)C(=O)O` (stereo not given), for which the T/C runs as follows: under setting [18], 101 % of control; under setting [19], 103 % of control; under setting [5], 113 % of control; under setting [6], 104 % of control; under setting [16], 89 % of control.
With `CC1CNC(=O)O1` (stereo not given), the T/C reads like this: under setting [19], 104 % of control; under setting [5], 100 % of control; under setting [6], 100 % of control; under setting [16], 92 % of control; under setting [17], 97 % of control.
As for `[I][Ga]([I])[I]`, the T/C is 87 % of control under setting [18] and 102 % of control under setting [19].
As for `Nc1ccc(C(=O)Oc2ccc([N+](=O)[O-])cc2)c(O)c1`, the T/C under setting [13] was 87 % of control and the T/C under setting [14] is 97 % of control.
For the compound `COc1cccc2c1C(=O)c1c(O)c3c(c(O)c1C2=O)C[C@@](O)(C(=O)CO)C[C@@H]3OC1CC(N(C)C)C(O)C(C)O1` (stereo not given in full), the T/C by setting is: (dose: 0.63 mg/kg/injection, schedule: Q01DX001 (ip), vehicle: water) 119 % of control; (dose: 1.73 mg/kg/injection, schedule: Q04DX003 (ip), vehicle: water) 98 % of control; (dose: 3.6 mg/kg/injection, schedule: Q01DX001 (ip), vehicle: water) 117 % of control; (dose: 4.8 mg/kg/injection, schedule: Q04DX003 (ip), vehicle: water) 94 % of control and 113 % of control; (dose: 5.0 mg/kg/injection, schedule: Q01DX001 (ip), vehicle: water) 166 % of control and 170 % of control; (dose: 6.0 mg/kg/injection, schedule: Q01DX001 (ip), vehicle: water) 104 % of control.
`O=C(CCCN1CCC(O)(c2cccc(C(F)(F)F)c2)CC1)c1ccc(F)cc1`: the T/C is, setting by setting: (dose: 0.04 mg/kg/injection, schedule: Q01DX009 (ip), vehicle: Klucel (hydroxypropylcellulose) (HPC)) 93 % of control; (dose: 0.19 mg/kg/injection, schedule: Q01DX009 (ip), vehicle: Klucel (hydroxypropylcellulose) (HPC)) 101 % of control; (dose: 0.39 mg/kg/injection, schedule: Q01DX009 (ip), vehicle: Klucel (hydroxypropylcellulose) (HPC)) 112 % of control; (dose: 0.78 mg/kg/injection, schedule: Q01DX009 (ip), vehicle: Klucel (hydroxypropylcellulose) (HPC)) 105 % of control; (dose: 4.0 mg/kg/injection, schedule: Q01DX009 (ip), vehicle: Klucel (hydroxypropylcellulose) (HPC)) 95 % of control; (dose: 8.0 mg/kg/injection, schedule: Q01DX009 (ip), vehicle: Klucel (hydroxypropylcellulose) (HPC)) 98 % of control.
As to `COc1ccc(N=NNc2ccc(OC)cc2)cc1`, the T/C runs as follows: (dose: 5.0 mg/kg/injection, schedule: Q01DX009 (ip), vehicle: saline with Tween-80) 106 % of control; (dose: 6.25 mg/kg/injection, schedule: Q01DX009 (ip), vehicle: saline with Tween-80) 90 % of control and 94 % of control; (dose: 6.25 mg/kg/injection, schedule: Q04DX003 (ip), vehicle: saline with Tween-80) 97 % of control and 105 % of control; (dose: 10.0 mg/kg/injection, schedule: Q01DX009 (ip), vehicle: saline with Tween-80) 109 % of control; (dose: 12.5 mg/kg/injection, schedule: Q01DX009 (ip), vehicle: saline with Tween-80) 86 % of control and 94 % of control; (dose: 12.5 mg/kg/injection, schedule: Q04DX003 (ip), vehicle: saline with Tween-80) 107 % of control and 113 % of control. Moreover, the T/C (dose: 16.5 mg/kg/injection, schedule: Q04DX003 (ip), vehicle: saline with Tween-80) is 95 % of control; the T/C (dose: 20.0 mg/kg/injection, schedule: Q01DX009 (ip), vehicle: saline with Tween-80) is 109 % of control; the T/C under setting [1] is 93 % of control and 94 % of control; the T/C (dose: 25.0 mg/kg/injection, schedule: Q04DX003 (ip), vehicle: saline with Tween-80) was 100 % of control and 107 % of control; the T/C (dose: 37.5 mg/kg/injection, schedule: Q04DX003 (ip), vehicle: saline with Tween-80) was 100 % of control; the T/C (dose: 40.0 mg/kg/injection, schedule: Q01DX009 (ip), vehicle: saline with Tween-80) is 112 % of control. Also, the T/C runs as follows: under setting [2], 97 % of control; under setting [3], 110 % of control.
